Entries after “also recorded” stand apart in the source; their conditions may differ.
Legend:
[1] = tested on: testicular steroidogensis; experiment: Inhibitory activity against testicular steroidogenesis in men in good health, single intranasal administration; type: in vivo
Experimental: The said product was administered intranasally at a dose of 500 μg in a few drops of distilled water at 8 A.M. on the third day of the test. For 2 days prior to the treatment and for 6 days after the treatment, samples of blood were taken daily at 8 A.M., 3 P.M. and 10 P.M. On the day of administration of the LH--RH agonist, blood samples were taken at 11 A.M. and 6 P.M.
The seric concentrations of LH and FSH were measured by radioimmuno-logic dosages with double antibodies and the antibodies for measuring LH and FSH were furnished by the National Pituitary Agency of N.I.H. in Bethesda, Md. The seric concentrations of steroids was measured by radioimmuno-logic dosages in which one ml of serum was extracted with ether and the steroids were separated on a LH-20 column before measuring with radioimmuno-logic dosages. The radioimmuno-logic dosage results were determined by a program derived from model II of Rodbard et al [Second Karolinska Symposium on Research Methods in Reproductive Endrocrinology, Diczfalusky Editor, Copenhague (1970), p. 79-103]. The statistical significance was determined by the "multiple level test" of Duncan-Kramer [Kramer, Biometrics, Vol. 12 (1956), p. 307]. The results are shown in the graphs on sheet 1 of the Figures filed herewith.

[2] = tested on: testicular steriodogenosis; experiment: Inhibitory activity on testicular steroidogenesis in a patient with prostate cancer; type: in vivo, human; details: intranasal 500 μg twice a day
From the text: The inhibitory activity of [D Ser (Tbu)^6, des Gly NH2^10 ] […] The results are reported in the graphs of sheet 2 of the Figures.

ovarian steroidogenosis = experiment: Inhibitory activity on ovarian steroidogenesis in women; type: in vivo
Experimental: The inhibitory activity of [D Ser (Tbu)^6, des Gly NH2^10 ] LH--RH ethylamide on ovarian steroidogenosis in women was determined on 6 women aged 26 to 35 years with normal and regular menstrual cycles and without prior endocrinal or gynecological problems. The study was conducted for 6 consecutive cycles consisting of 2 pretreatment cycles, 2 treatment cycles and 2 post-treatment cycles. Two drops of a solution containing 500 μg of [D Ser (Tbu)^6, des Gly NH2^10 ] LH--RH ethylamide were deposited on each nostril at 8 A.M. and 5 P.M. of a day between the 4th and 9th day after the peak of LH-day 0. Daily blood samples were taken between 4 and 6 P.M. to measure seric levels of LH, FSH, progesterone and estradiol which were determined by radioimmuno-logictests with double antibodies. The antibodies to measure LH and FSH were furnished by the National Pituitory Agency of N.I.H. of Bethesda, Md.
Estradiol and progesterone were measured with highly specific antibodies developed against 7-(O-carboxymethyl)-oxime of estradiol and 12-(O-carboxymethyl)-oxime of progesterone, respectively [3H] 17β-estradiol and ^125 I-progesterone-12-[O-carboxymethyl)-oxime]used as tracers. The serum was extracted with benzene and the steroids were separated with a LH-20 column before the determination. The radioimmunological results were exploited by the program derived from model II of Rodbard and Lewald as in Example 1 and the statistical significance was measured by the multiple level test of Ducan-Kramer of Example 1. The results are shown in the graphs of sheets 3 to 5 of the Figures.

[3] = men, intranasal 500 μg, 3rd day following administration
[4] = intranasal 500 μg at 8 A.M. and 5 P.M. of one day in the luteal phase, typical subject of sheet 3

For `CCNC(=O)[C@@H]1CCCN1C(=O)[C@H](CCCNC(=N)N)NC(=O)[C@H](CC(C)C)NC(=O)[C@@H](COC(C)(C)C)NC(=O)[C@H](Cc1ccc(O)cc1)NC(=O)[C@H](CO)NC(=O)[C@H](Cc1c[nH]c2ccccc12)NC(=O)[C@H](Cc1c[nH]cn1)NC(=O)[C@@H]1CCC(=O)N1` [[D Ser (Tbu)^6, des Gly NH2^10] LH--RH ethylamide], the “duration of the drop of seric levels of the steroids (testosterone and its precursors)” value ([1]; human, single intranasal dose of 500 μg) was 3 days, the “diminution of the level of testosterone” value ([1]; human, single intranasal dose of 500 μg, 3rd day following administration) was 50% and the “level of testosterone / steroids on the fourth day after administration” value ([1]; human, single intranasal dose of 500 μg, fourth day (until the 6th day)) was “returned to normal; also recorded: return to normal levels”. For the same compound, the “concentration of 17-OH-progesterone relative to the initial control values” [1, 3] was 40%, the “concentration of testosterone relative to the initial control values” [1, 3] was 50% and the “LH and FSH plasmatic levels” value ([1]; men, intranasal 500 μg, after administration) was “increase”. For the same compound, the “seric concentration of pregnenolone, 17-OH-pregnenolone, progesterone, 17-OH-progesterone, Δ5-androstene-3β,17β-diol and testosterone” value ([1]; men, intranasal 500 μg, on the day of treatment) was “increased”, the “level of androgenic steroids” value [2] was “diminution” and the level of testosterone ([2]; two weeks of treatment) was “stabilized at a very low level”. For the same compound, the “progesterone level, cycles of post-treatment, % of the control values (pretreatment cycles = 100%)” value (ovarian steroidogenosis; 12 cycles of post-treatment) was 99%, the “progesterone level, cycles of treatment, % of the control values (pretreatment cycles = 100%)” value (ovarian steroidogenosis; 12 cycles of treatment) was 46% and the “level of progesterone reduced as compared to the controls” value (ovarian steroidogenosis; 12 cycles, sheet 5, scale 13 to 127%) was 46%. The “reduction of seric levels of progesterone as compared to the controls, first cycle of treatment” value (ovarian steroidogenosis; [4]) was 13%, the “reduction of seric levels of progesterone as compared to the controls, second cycle of treatment” value (ovarian steroidogenosis; [4]) was 34% and the “level of seric progesterone in the 2 cycles of post-treatment” value (ovarian steroidogenosis; post-treatment cycles) was “return to normal”.
